Like-named read-outs stand apart in the source and are kept apart here.
What was measured:
[1] = tested on: patients with Wilson disease (WD)
From the text: The UWDRS Part II total score results for this pooled population are presented in Table 16 and FIG. 13 and the UWDRS Part III total score results are in Table 17 and FIG. 14. The UWDRS Part III Functional Subscale (comprised of the items arising from a chair, gait, handwriting and speech) results for this pooled population are presented in Table 18 and FIG. 15.

[2] = tested on: ^64CuCl2 (^64Cu) intestinal absorption and hepatic copper uptake; assay: Example 2: Copper Absorption study, oral 64Cu PET-CT in healthy subjects; format: in vivo, human
Method: Blood was collected at several time points to assess plasma copper kinetics. The study was carried out as a randomized, placebo-controlled intervention study. […] The study assessed the previously listed organs and the effect of anti-copper treatment by comparing the mean standard uptake value (SUV) in the organs of interest. […] The dynamic baseline scans and the subsequent static scans were compared across all treatments.

[3] = human, in vivo
[4] = healthy subjects, after 15 hours

Bis-choline tetrathiomolybdate [BC-TTM]
UWDRS Part III (Range 0-175) LSM change from baseline ([1]; BC-TTM exposure 4 wks): −0.83
UWDRS Part III (Range 0-175) Mean change from baseline ([1]; BC-TTM exposure 4 wks): −0.72
UWDRS Part III Functional Subscale (Range 0-10) LSM change from baseline ([1]; BC-TTM exposure 4 wks): −0.083
UWDRS Part III Functional Subscale (Range 0-10) Mean change from baseline ([1]; BC-TTM exposure 4 wks): −0.072
UWDRS Part III (Range 0-175) LSM change from baseline ([1]; BC-TTM exposure 12 wks): −1.13
UWDRS Part III (Range 0-175) Mean change from baseline ([1]; BC-TTM exposure 12 wks): −1.11
UWDRS Part III Functional Subscale (Range 0-10) LSM change from baseline ([1]; BC-TTM exposure 12 wks): −0.141
UWDRS Part III Functional Subscale (Range 0-10) Mean change from baseline ([1]; BC-TTM exposure 12 wks): −0.137
UWDRS Part III (Range 0-175) LSM change from baseline ([1]; BC-TTM exposure 24 wks): −1.10
UWDRS Part III (Range 0-175) Mean change from baseline ([1]; BC-TTM exposure 24 wks): −0.97
UWDRS Part III Functional Subscale (Range 0-10) LSM change from baseline ([1]; BC-TTM exposure 24 wks): −0.146
UWDRS Part III Functional Subscale (Range 0-10) Mean change from baseline ([1]; BC-TTM exposure 24 wks): −0.157
UWDRS Part III (Range 0-175) LSM change from baseline ([1]; BC-TTM exposure 36 wks): −1.85
UWDRS Part III (Range 0-175) Mean change from baseline ([1]; BC-TTM exposure 36 wks): −2.38
UWDRS Part III Functional Subscale (Range 0-10) LSM change from baseline ([1]; BC-TTM exposure 36 wks): −0.202
UWDRS Part III Functional Subscale (Range 0-10) Mean change from baseline ([1]; BC-TTM exposure 36 wks): −0.286
UWDRS Part III (Range 0-175) LSM change from baseline ([1]; BC-TTM exposure 48 wks): −2.76
UWDRS Part III (Range 0-175) Mean change from baseline ([1]; BC-TTM exposure 48 wks): −3.37
UWDRS Part III Functional Subscale (Range 0-10) LSM change from baseline ([1]; BC-TTM exposure 48 wks): −0.285
UWDRS Part III Functional Subscale (Range 0-10) Mean change from baseline ([1]; BC-TTM exposure 48 wks): −0.345
UWDRS Part III (Range 0-175) LSM change from baseline ([1]; BC-TTM exposure 60 wks): −3.24
UWDRS Part III (Range 0-175) Mean change from baseline ([1]; BC-TTM exposure 60 wks): −2.00
UWDRS Part III Functional Subscale (Range 0-10) LSM change from baseline ([1]; BC-TTM exposure 60 wks): −0.355
UWDRS Part III Functional Subscale (Range 0-10) Mean change from baseline ([1]; BC-TTM exposure 60 wks): −0.422
UWDRS Part III (Range 0-175) LSM change from baseline ([1]; BC-TTM exposure 72 wks): −4.43
UWDRS Part III (Range 0-175) Mean change from baseline ([1]; BC-TTM exposure 72 wks): −4.93
UWDRS Part III Functional Subscale (Range 0-10) LSM change from baseline ([1]; BC-TTM exposure 72 wks): −0.399
UWDRS Part III Functional Subscale (Range 0-10) Mean change from baseline ([1]; BC-TTM exposure 72 wks): −0.494
UWDRS Part III (Range 0-175) LSM change from baseline ([1]; BC-TTM exposure 96 wks): −6.32
UWDRS Part III (Range 0-175) Mean change from baseline ([1]; BC-TTM exposure 96 wks): −7.95
UWDRS Part III Functional Subscale (Range 0-10) LSM change from baseline ([1]; BC-TTM exposure 96 wks): −0.607
UWDRS Part III Functional Subscale (Range 0-10) Mean change from baseline ([1]; BC-TTM exposure 96 wks): −0.900
UWDRS Part III (Range 0-175) LSM change from baseline ([1]; BC-TTM exposure 120 wks): −6.69
UWDRS Part III (Range 0-175) Mean change from baseline ([1]; BC-TTM exposure 120 wks): −8.92
UWDRS Part III Functional Subscale (Range 0-10) LSM change from baseline ([1]; BC-TTM exposure 120 wks): −0.660
UWDRS Part III Functional Subscale (Range 0-10) Mean change from baseline ([1]; BC-TTM exposure 120 wks): −0.946
UWDRS Part III (Range 0-175) LSM change from baseline ([1]; BC-TTM exposure 144 wks): −7.70
UWDRS Part III (Range 0-175) Mean change from baseline ([1]; BC-TTM exposure 144 wks): −9.78
UWDRS Part III Functional Subscale (Range 0-10) LSM change from baseline ([1]; BC-TTM exposure 144 wks): −0.803
UWDRS Part III Functional Subscale (Range 0-10) Mean change from baseline ([1]; BC-TTM exposure 144 wks): −1.042
UWDRS Part III (Range 0-175) LSM change from baseline ([1]; BC-TTM exposure 168 wks): −9.48
UWDRS Part III (Range 0-175) Mean change from baseline ([1]; BC-TTM exposure 168 wks): −18.08
UWDRS Part III Functional Subscale (Range 0-10) LSM change from baseline ([1]; BC-TTM exposure 168 wks): −0.903
UWDRS Part III Functional Subscale (Range 0-10) Mean change from baseline ([1]; BC-TTM exposure 168 wks): −1.841
UWDRS Part III (Range 0-175) LSM change from baseline ([1]; BC-TTM exposure 192 wks): −6.13
UWDRS Part III (Range 0-175) Mean change from baseline ([1]; BC-TTM exposure 192 wks): −12.65
UWDRS Part III Functional Subscale (Range 0-10) LSM change from baseline ([1]; BC-TTM exposure 192 wks): −0.437
UWDRS Part III Functional Subscale (Range 0-10) Mean change from baseline ([1]; BC-TTM exposure 192 wks): −1.250
UWDRS Part III (Range 0-175) LSM change from baseline ([1]; BC-TTM exposure 216 wks): −6.52
UWDRS Part III (Range 0-175) Mean change from baseline ([1]; BC-TTM exposure 216 wks): −16.17
UWDRS Part III Functional Subscale (Range 0-10) LSM change from baseline ([1]; BC-TTM exposure 216 wks): −0.430
UWDRS Part III Functional Subscale (Range 0-10) Mean change from baseline ([1]; BC-TTM exposure 216 wks): −1.519
UWDRS Part III (Range 0-175) LSM change from baseline ([1]; BC-TTM exposure 240 wks): −6.49
UWDRS Part III (Range 0-175) Mean change from baseline ([1]; BC-TTM exposure 240 wks): 11.48
UWDRS Part III Functional Subscale (Range 0-10) LSM change from baseline ([1]; BC-TTM exposure 240 wks): −0.607
UWDRS Part III Functional Subscale (Range 0-10) Mean change from baseline ([1]; BC-TTM exposure 240 wks): −0.898
UWDRS Part III (Range 0-175) LSM change from baseline ([1]; BC-TTM exposure 264 wks): −9.57
UWDRS Part III (Range 0-175) Mean change from baseline ([1]; BC-TTM exposure 264 wks): −14.00
UWDRS Part III Functional Subscale (Range 0-10) LSM change from baseline ([1]; BC-TTM exposure 264 wks): −0.818
UWDRS Part III Functional Subscale (Range 0-10) Mean change from baseline ([1]; BC-TTM exposure 264 wks): −0.995
UWDRS Part III (Range 0-175) Mean ([1]; Baseline, observed value): 15.43
UWDRS Part III Functional Subscale (Range 0-10) Mean ([1]; Baseline, observed value): 1.590
UWDRS Part II, Part III and Part III Functional Subscale scores over up to 5 years ([1]; Pooled Studies 301 and 201): continuing improvement
UWDRS Part II Score (Range 0-40), change from baseline, Mean (SD) ([1]; Pooled Studies 301 and 201, BC-TTM exposure 4 weeks): −0.3 (2.28)
UWDRS Part II Score (Range 0-40), change from baseline, Mean (SD) ([1]; Pooled Studies 301 and 201, BC-TTM exposure 12 weeks): −0.4 (2.76)
UWDRS Part II Score (Range 0-40), change from baseline, Mean (SD) ([1]; Pooled Studies 301 and 201, BC-TTM exposure 24 weeks): −0.4 (3.42)
UWDRS Part II Score (Range 0-40), change from baseline, Mean (SD) ([1]; Pooled Studies 301 and 201, BC-TTM exposure 36 weeks): −0.9 (4.11)
UWDRS Part II Score (Range 0-40), change from baseline, Mean (SD) ([1]; Pooled Studies 301 and 201, BC-TTM exposure 48 weeks): −1.2 (4.24)
UWDRS Part II Score (Range 0-40), change from baseline, Mean (SD) ([1]; Pooled Studies 301 and 201, BC-TTM exposure 60 weeks): −1.4 (4.35)
UWDRS Part II Score (Range 0-40), change from baseline, Mean (SD) ([1]; Pooled Studies 301 and 201, BC-TTM exposure 72 weeks): −1.9 (4.74)
UWDRS Part II Score (Range 0-40), change from baseline, Mean (SD) ([1]; Pooled Studies 301 and 201, BC-TTM exposure 96 weeks): −2.5 (6.11)
UWDRS Part II Score (Range 0-40), change from baseline, Mean (SD) ([1]; Pooled Studies 301 and 201, BC-TTM exposure 120 weeks): −3.1 (6.82)
UWDRS Part II Score (Range 0-40), change from baseline, Mean (SD) ([1]; Pooled Studies 301 and 201, BC-TTM exposure 144 weeks): −3.3 (6.61)
UWDRS Part II Score (Range 0-40), change from baseline, Mean (SD) ([1]; Pooled Studies 301 and 201, BC-TTM exposure 168 weeks): −6.2 (10.17)
UWDRS Part II Score (Range 0-40), change from baseline, Mean (SD) ([1]; Pooled Studies 301 and 201, BC-TTM exposure 192 weeks): −5.9 (9.88)
UWDRS Part II Score (Range 0-40), change from baseline, Mean (SD) ([1]; Pooled Studies 301 and 201, BC-TTM exposure 216 weeks): −7.1 (10.90)
UWDRS Part II Score (Range 0-40), change from baseline, Mean (SD) ([1]; Pooled Studies 301 and 201, BC-TTM exposure 240 weeks): −6.6 (10.09)
UWDRS Part II Score (Range 0-40), change from baseline, Mean (SD) ([1]; Pooled Studies 301 and 201, BC-TTM exposure 264 weeks): −6.2 (9.02)
copper uptake in the liver one hour after oral 64Cu tracer ([2]; healthy subject, FIG. 25): virtually no copper uptake in the liver
Absorption of orally-administered copper compared to penicillamine, trientine, or placebo ([2]; healthy subjects): significantly reduced
blood levels of 64Cu ([2]; healthy subjects): reduced
mean SUV liver / hepatic uptake of labeled copper, comparison between treatments ([2]; healthy subjects, 1 hour and 15 hours after oral 64Cu): significantly lower
reduction of mean hepatic copper uptake ([2]; healthy subjects, 1 hr scan post treatment, oral 64Cu, 7 days treatment): ~90%
range of reduction in hepatic copper uptake ([2]; healthy subjects, 13 hour scan): 60%-90%
mean SUV liver compared with baseline or placebo ([2]; healthy subjects, FIG. 26): markedly reduced
mean SUV 64Cu Pancreas post treatment ([2]; healthy subjects, after 1 hour): lower than penicllamine, trientine and placebo
mean SUV 64Cu Urinary bladder post treatment ([2]; healthy subjects, after 1 hour): lower than penicllamine, trientine and placebo
mean SUV 64Cu Colon post treatment [2, 4]: higher than penicillamine and placebo
mean SUV 64Cu Gallbladder post treatment [2, 4]: lower than penicllamine, trientine and placebo
covariate effect of age on plasma total molybdenum clearance [3]: age is not a significant covariate

From patent US20250082674A1, “METHODS OF TREATING COPPER METABOLISM-ASSOCIATED DISEASES OR DISORDERS” (priority 2021, published 2025)
